# What was measured:
# human PBM cells = experiment: Cytotoxicity assay on uninfected PHA stimulated human PBMC (trypan blue); type: cell-based; details: Table 2; >100 μM = Nontoxic; read-out: IC50 Toxicity PBM Cells
# Description: Cells. […] PBS), and pelleted at 300×g for 10 minutes. […] Cytotoxicity assay. The drugs were evaluated for their potential toxic effects on uninfected PHA stimulated human PBMC. Flasks were seeded so that the final cell concentration was 2×10^5 cells/ml. The cells were cultured with and without drug for 6 days, at which time aliquots were counted for cell viability, as assessed by the trypan blue dye-exclusion method using a hemacytometer. The median inhibitory concentration (IC50) was calculated using the median effect method (Chou et al, Elsevier-Biosoft, Elsevier Science Publishers, Cambridge, U.K., 1985; Chou et al, Adv. Enz. Regul. 22, 27-55, 1984). Median-effect method. Dose-effect relationships were analyzed by the median-effect equation (Chou et al, Adv. Enz. Regul. 22, 27-55, 1984). The slope (m) and median effective and inhibitory concentration (EC50 and IC50) values were obtained by using a computer program developed by Chou and Chou (Chou et al, Elsevier-Biosoft, Elsevier Science Publishers, Cambridge, U.K., 1985).
# [1] = molecular target: T1, HIV-1 reverse transcriptase (Human immunodeficiency virus type 1 group M subtype B, UniProt P04585); experiment: Evaluation of compounds on purified retroviral RT (cell-free, virion-derived); type: biochemical; details: Table 2; read-out: EC-50 Cell-Free RT (virion-derived)
# T1 construct: HIV-1 RT was isolated from detergent disrupted virions; made in house; host or cells: virions pelleted from culture fluid of HIV-1-infected PHA-stimulated human PBMC; DEAE-cellulose and phosphocellulose chromatography
# Description: Evaluation of compounds on purified retroviral RT. HIV-1 RT was isolated from detergent disrupted virions obtained from the cell-free supernatant of infected PHA-stimulated PBMC. The enzyme was purified by passing the extract through ion-exchange chromatography columns, as described previously (Eriksson et al, Antimicrob. Agents Chemother. 31, 600-604, 1977. Briefly, 750 ml of culture fluid harvested from HIV-1-infected PBMC were ultracentrifuged to pellet the virus. The pellet was dissolved in buffer A [50 mM Tris-HCl, pH 7.9/0.25% Nonidet P-40/5 mM dithiothreitol/20% (vol/vol) glycerol] containing 1 mM EDTA, and freeze-thawed four times. After clarification by centrifugation, the enzyme was partially purified from the supernatant by passing the extract through a DEAE-cellulose column (Whatman DE-52; 2.6×15 cm) previously equilibrated with buffer B (50 mM Tris-Cl, pH 7.9, 50 mM KCl, 1 mM EDTA, 1 mM dithiothreitol, 20% glycerol). Elution was performed using a linear gradient 50-500 mM KCl in buffer B. Fractions containing enzyme activity were dialyzed against buffer B and were further purified on a phosphocellulose column (Whatman P-11) using a linear KCl (50-500 mM) gradient in buffer B. The peak fractions were pooled and dialyzed against buffer B. The enzyme was characterized as HIV-1 reverse transcriptase based on its cation, salt, pH, and template requirements according to previous descriptions (Eriksson et al, Antimicrob. Agents Chemother. 31, 600-604, 1977). The standard reaction mixture was used to evaluate the inhibitory effect of the drugs, as previously described (Eriksson et al, Antimicrob. Agents Chemother. 31, 600-604, 1977). Briefly, the reaction mixtures (final volume 100 μl) contained 100 mM Tris-HCl, pH 8.0, 50 mM KCl, 2 mM MgCl2, 5 mM DTT, 400 ug/ml bovine serum albumin, 3 μg/ml (rA)·(dT)12-18 and 1 μM of [^3H]TTP (specific activity 82.3 Ci/mmol). The reactions were started by the addition of 10 μl of partially purified RT, incubated at 37° C. for 60 min., and processed as previously described (Eriksson et al, Antimicrob. Agents Chemother. 31, 600-604, 1977).
# Median-effect method. Dose-effect relationships were analyzed by the median-effect equation (Chou et al, Adv. Enz. Regul. 22, 27-55, 1984). The slope (m) and median effective and inhibitory concentration (EC50 and IC50) values were obtained by using a computer program developed by Chou and Chou (Chou et al, Elsevier-Biosoft, Elsevier Science Publishers, Cambridge, U.K., 1985).
# HSV-1 = experiment: Plaque reduction assay for herpes simplex viruses in Vero cells; type: cell-based, herpes simplex virus type 1; details: Table 2; read-out: EC-50 HSV-1
# Description: (§1) Cell culture assays for heroes simplex viruses. Mycoplasma-free Vero cells, obtained from Flow Laboratory (McLean, Va.), were used for the plaque assays. The methodologies for the plaque reduction and cytotoxicity assays have been previously described (Schinazi et al, Antimicrob. Agents Chemother. 22, 499-507, 1982). Median-effect method. Dose-effect relationships were analyzed by the median-effect equation (Chou et al, Adv. Enz. Regul. 22, 27-55, 1984). The slope (m) and median effective and inhibitory concentration (EC50 and IC50) values were obtained by using a computer program developed by Chou and Chou (Chou et al, Elsevier-Biosoft, Elsevier Science Publishers, Cambridge, U.K., 1985).
# HSV-2 = experiment: as above; type: cell-based, herpes simplex virus type 2; details: Table 2; read-out: EC-50 HSV-2
# Description: as §1
# Friend, Spleen (EY-10) = experiment: UV/XC assay for murine retroviruses in SC-1 cells; type: cell-based, murine retrovirus; details: Table 2; read-out: EC-50 Friend, Spleen (EY-10)
# Description: UV/XC Assay for Murine Retroviruses Cells. Mouse embryo fibroblasts (SC-1) and XC cells were obtained from the American Type Culture Collection, Rockville, Md. The XC cell line was derived from a transplantable tumor induced in newborn White-Weston rats by the intramuscular injection of the Prague strain of Rous sarcoma virus. […] The cells were maintained in Eagle's minimum essential medium with Hanks balanced salt solution, supplemented with penicillin (100 U/ml), streptomycin (100 μg/ml), sodium bicarbonate (24 mM), Hepes (25 mM), and either 2 (maintenance) or 10 (growth) percent inactivated newborn or fetal calf serum.
# Virus quantitation by UV-XC assay. The XC test (Rowe et al, Virology 42, 1136-1139, 1970) is a plaque-type of assay which tests for the presence and titer of B- and N-tropic murine leukemia viruses. Because these viruses produce no overt signs of infection of SC-1 mouse cells, it is necessary to overlay the virus producing culture with an indicator cell line, XC. The number of syncytia that are produced is a direct measure of the virus titer in FFU.
# Six-well plates were seeded with 1×10^5 SC-1 mouse cells on the first day. On the following day the medium was removed and the inoculum (0.2 ml) was added in medium containing polybrene (4 μg/ml). For determining the antiviral activity of the compounds in culture, the virus dilution selected produced in untreated cultures about 80 foci per well. After 1 hour, the virus was removed and various concentrations of the drug were added. The plates were replenished with medium on the third and fifth days. The medium was removed on the eighth day and the cells exposed to UV irradiation (60 erg/mm^2 per sec) for 30 seconds. Medium containing 10^6 XC cells was then added to each plate. On the eleventh day, the plates were fixed with 10% buffered Formalin and stained with crystal violet. Comparison of the number of foci to those found in virus-infected cells receiving no drug allowed determination of whether a drug at a particular concentration was effective. Control cells without virus but receiving the drug provided an estimate of the drug's toxic effects as quantitated by using trypan blue staining.
# Vero cells = experiment: Cytotoxicity assay in Vero cells; type: cell-based; details: Table 2; >100 μM = Nontoxic; read-out: IC50 Toxicity Vero Cells
# Text: Cell culture assays for heroes simplex viruses. Mycoplasma-free Vero cells, obtained from Flow Laboratory (McLean, Va.), were used for the plaque assays. The methodologies for the plaque reduction and cytotoxicity assays have been previously described (Schinazi et al, Antimicrob. Agents Chemother. 22, 499-507, 1982).
# [2] = Comparison of toxicity of polyoxometalate compounds in mice (mortality, haematology); type: in vivo; design: MCV (mean corpuscular volume): unit not given here; details: BID × 6, 60 mkd i.p.
# Text: Comparison of Toxicity of Polyoxometalate Compounds Mice.
# In vivo antiviral experiments. […] Treatment was continued daily for 6 or 10 days.
# [3] = tested on: human granulocyte-macrophage precursor cells; type: cell-based
# Text: Preparation of Cells. Human bone marrow cells were collected by aspiration from the posterior iliac crest of normal healthy volunteers, treated with heparin and the mononuclear population separated by Ficoll-Hypaque gradient centrifugation. Cells were washed twice in Hanks balanced salt solution, counted with a hemacytometer and their viability was >98% as assessed by trypan blue exclusion.
# Assay of Colony-Forming Unit Granulocyte-Macrophage (CFU-GM) for Drug Cytotoxicity. The culture assay for CFU-GM was performed using a bilayer soft-agar method as recently described (Sommadossi et al, Antimicrob. Agents Chemother. 31, 452-454, 1987). McCoy 5A nutrient medium supplemented with 15% dialyzed fetal bovine serum (heat inactivated at 56° C. for 30 min.) (Gibco Laboratories, Grand Island, N.Y.) was used in all experiments. This medium was completely lacking in thymidine and uridine. Cells were cloned in 0.3% agar in the presence of increasing concentrations of the modulating compound or in medium alone (control). After 14 days of incubation at 37° C. in a humidified atmosphere of 5% CO2 in air, colonies (≧50 cells) were counted using an inverted microscope.
# The toxicities of a variety of polyoxometalates with respect to human bone marrow cells (human granulocyte-macrophage precursor cells) were assessed.
Substance,IC50 (human PBM cells) [µM],EC50 [1] [µM],EC50 (HSV-1) [µM],EC50 (HSV-2) [µM],"EC50 (Friend, Spleen (EY-10)) [µM]",IC50 (Vero cells) [µM],Hct (hematocrit) ([2]; bled on day 17) [%],Hgb (hemaglobin) ([2]; bled on day 17) [g/dL],MCH ([2]; bled on day 17) [pg],MCHC (mean corpuscular hemoglobin concentration) ([2]; bled on day 17) [g/dL],MCV (mean corpuscular volume) ([2]; bled on day 17),PLT (platelates) (×1000) ([2]; bled on day 17),RBC (×1000000) ([2]; bled on day 17),RDW (width of red cells) ([2]; bled on day 17) [%],WBC (×1000) ([2]; bled on day 17),Mortality ([2]; dead/total),"toxicity to human bone marrow cells (order of toxicity, FIG. 6) [3]"
"(LysH^+)q(H^+)5-qST, where q=1-5 [(LYSH^+)nH^+(4−n)ST]",2450,20.5,0.32,< 1,0.95,> 100,–,–,–,–,–,–,–,–,–,–,–
(NH4)4[SiW12O40] [NH4ST],–,–,–,–,–,–,17.47 ± 7.08,6.42 ± 2.39,17.6 ± 4.64,37.92 ± 9.82,43.38 ± 0.51,246.46 ×1000,3.76 ± 1.57 ×1000000,36.76 ± 2.63,7.18 ± 3.9 ×1000,0/5,NH4BT (least toxic)<BT and NH4ST<AZT and ST

# From patent publication US6911470B1, “Polyoxometalate compounds as antiviral agents” (priority 1988, dated 2005)
